In test [1] the test system is poly(I)-induced NFkB/AP-1 dependent SEAP activity (TLR7 signaling pathway). The test can be described thus: Poly(I)-induced NFkB/AP-1-dependent SEAP activity in THP1-Blue-CD14 cells. Format: cell-based, Human. The conditions noted are these: for Effect on poly(I)-induced SEAP activity (in words): THP-1-blue cells.
Procedure: (§1) THP1-Blue-CD14 cells were seeded at a density of 2×10^5 cells/100 μl in a 96-well plate, and cultured at 37° C. for 3 hours.
For test [2], the system named is poly(I:C)-induced NFkB/AP-1 dependent SEAP activity (TLR3 signaling pathway). The test can be described thus: Poly(I:C)-induced NFkB/AP-1-dependent SEAP activity in THP1-Blue-CD14 cells. Format: cell-based, Human. As to conditions: for Effect on poly(I:C)-induced SEAP activity (in words): THP-1-blue cells.
Procedure: as §1
Test [3] has as its system IL-6-induced STAT3 transcriptional activation. The test can be described thus: IL-6 reactive STAT3 reporter gene (luciferase) assay in Hep3B cells. Format: cell-based. The conditions noted are these: for Effect on STAT3 luciferase activity (in words): IL-6; for Inhibition (%) of STAT3 luciferase activity / IC50: IL-6 10 ng/ml; for IC50: read-out: IC50, inhibition of IL-6-induced STAT3 luciferase activity. How it is done: pStat3-Luc and pcDNA3.1(+) (Clontech laboratories, Palo Alto, Calif.) were transfected into Hep3B cells (ATCC HB-8064) using lipofectamine plus (Invitrogen, Carlsbad, Calif., USA) at the same time. 2 days later, the cells were treated with hygromycin (100 μg/ml) to obtain clones stably expressing luciferase. Luciferase analysis was performed to examine whether luciferase is stably expressed in the clones.
The transfected cells in the clones obtained in Example 5-1 were cultured in DMEM (GIBCO 119950965) under serum starvation, and the samples were treated for 1 hour as follows. 10 ng/ml IL-6 (R&D system, USA) was added thereto, followed by cultivation for 12 hours.
The cultured cells were washed with PBS and 50 μl of lysis buffer (luciferase assay system, promega, USA) was added thereto, followed by stirring for 20 minutes. 30-100 μl of luciferase substrate (luciferase assay system, promega, USA) was added to measure […] using a luminometer (EG&G BERTHOLD, USA) within 5 minutes (Tables 5 and 6).
In detail, the inhibitory effects of oleanolic acid or oleanolic acid acetate on STAT3 luciferase activity was measured in the same manner as in Example 5-2, except that oleanolic acid or oleanolic acid acetate was treated as a sample in an amount of 0.1, 1, 3, 6 or 10 μM, respectively and compared with each other (FIG. 14).

The test system of a further test is STAT3 phosphorylation. The test can be described thus: IL-6-induced STAT3 phosphorylation in Hep3B cells (Western blot). Format: cell-based. The conditions noted are these: IL-6 20 ng/ml 20 minutes, FIGS. 8a, 8b. Here is the method:
Hep3B cells were seeded in a 6-well plate at a density of 5×10^5 per well, and cultured to a confluency of 80% in a culture plate. Then, the medium was replaced with serum-free medium and further cultured for 12 hours, and the samples were treated for 60 minutes as follows.
Next, 20 ng/ml of IL-6 was treated, and reacted for 20 minutes, and 40 μl of lysis buffer (pH 8, 20 mM Tris-HCl, 137 mM NaCl, 10% glycerol, 1% Triton X-100, 1 mM Na3VO4, 2 mM EDTA, 1 mM APMSF, 20 μM leupeptin, 20 μg/ml aprotonin; Sigma, USA) was used for cell lysis. Centrifugation (13000 g, 15 minutes) was performed to obtain supernatants containing proteins. Protein concentrations were quantified using a DC protein assay kit (Bio-Rad, USA), and proteins were loaded in a 4˜12% SDS polyacrylamide gel (SDS-PAGE) and electrophoresis was performed at 175 mA for 2 hours. After electrophoresis, the proteins of the gel were transferred onto a PVDF membrane (Westran S, pore size […]; Whatman, USA) at 35 V for 90 minutes. The transferred membrane was blocked with Tris-buffer (T-TBS; 50 mM Tri-HCl, pH 7.6, 150 mM NaCl, 0.2% Tween-20, 5% skim milk; Sigma, USA) at room temperature for 1 hour, and washed with T-TBS five times. The membrane was treated with polyclonal antibody of phospho-STAT3 (1:1000 dilution) as a primary antibody at 4° C. 12 hours. […]

For test [4], the system named is osteoclast differentiation from bone marrow macrophages. The test can be described thus: RNAKL-induced osteoclast differentiation of bone marrow macrophages (TRAP staining). Format: cell-based, mouse. The conditions noted are these: for Osteoclast differentiation (number and size of TRAP-positive osteoclasts): M-CSF 30 ng/ml, RNAKL 50 ng/ml, 4 days. How it is done:
Femurs and tibia were removed from 5-week-old mice, and the bone cavity was washed using a 1 cc syringe to obtain bone marrow cells. The isolated bone marrow cells were cultured in α-MEM (α-minimum essential medium) containing 10% FBS, antibiotic, M-CSF (30 ng/ml) for 3 days. 3 days later, the adherent cells were used as bone marrow macrophage (BMM). The bone marrow macrophages were cultured by addition of M-CSF (30 ng/ml) and an osteoclast differentiation factor RNAKL (Receptor activator of nuclear factor kappa-B ligand) (50 ng/ml) and treated with the adzuki bean extract and oleanolic acid acetate at each concentration. 4 days later, the cultured cells were stained with a TRAP solution (Sigma Aldrich, USA), and red stained cells were determined as differentiated osteoclasts.

[5] abbreviates: Homo sapiens, sample 30 μM, poly(I) 50 μg/ml, read-out: Inhibition (%) of poly(I)-induced SEAP activity.
[6] abbreviates: Homo sapiens, sample 60 μM, poly(I) 50 μg/ml, read-out: Inhibition (%) of poly(I)-induced SEAP activity.
Where [7] appears, read: Homo sapiens, sample 30 μM, poly(I:C) 100 μg/ml, read-out: Inhibition (%) of poly(I:C)-induced SEAP activity.
Where [8] appears, read: Homo sapiens, sample 60 μM, poly(I:C) 100 μg/ml, read-out: Inhibition (%) of poly(I:C)-induced SEAP activity.
[9] abbreviates: Homo sapiens, read-out: Inhibition (%) of poly(I)-induced SEAP activity.
[10] abbreviates: Homo sapiens, read-out: Inhibition (%) of poly(I:C)-induced SEAP activity.

Where “and” joins values, the source holds several entries; their conditions need not be identical. Equal entries are not always repeated. Where two headings read alike, the source gives them in different places.

As for `OC[C@H]1O[C@@H](Oc2cc(O)c3c(c2)O[C@H](c2ccc(O)c(O)c2)[C@@H](O)C3)[C@H](O)[C@@H](O)[C@@H]1O` [Catechin-7-glucopyranoside, catechin-7-glucopyranoside, reference compound], the “Effect on poly(I)-induced SEAP activity (in words)” value in test [1] is on record as “did not affect”. For the same compound, the “Effect on poly(I:C)-induced SEAP activity (in words)” value in test [2] is “did not affect”. Also, the “Inhibition (%) of poly(I:C)-induced SEAP activity” value in test [2] (sample 30 μM, poly(I:C) 100 μg/ml) was 13.19%; in test [2] (sample 60 μM, poly(I:C) 100 μg/ml), 11.16%. For the same compound, in test [3], the “Effect on STAT3 luciferase activity (in words)” value is given as “did not show the inhibitory effect”. Further, the “Inhibition (%) of STAT3 luciferase activity” value in test [3] (sample 30 μM) came to 8.3%; in test [3] (sample 60 μM), 15.9%; in test [3] (sample 100 μM) it was 0.4%.

As for `O=c1c(-c2ccc(O)cc2)coc2cc(O)cc(O)c12` [Genistein, reference compound], the “Inhibition (%) of STAT3 luciferase activity” value in test [3] (sample 100 μM) is 95.2% and 95.1% and 95.4%.

With `O=c1cc(-c2ccc(O)c(O)c2)oc2cc(O)cc(O)c12` [Luteolin, reference compound], the inhibition at 30 µM in test [1] (setting [5]) was 79.2%; in test [2] (setting [7]) it was 47.7%. The inhibition at 60 µM is 96.3% in test [1] (setting [6]) and 67.3% in test [2] (setting [8]).

For `CC(=O)O[C@H]1CC[C@@]2(C)C(CC[C@]3(C)[C@@H]2CC=C2[C@H]4CC(C)(C)CC[C@]4(C(=O)O)CC[C@]23C)C1(C)C` (stereo partly drawn) [Oleanolic acid acetate, 4aS,6aR,6aS,6bR,8aR,10S,12aR,14bS)-10-hydroxy-2,2,6a,6b,9,9,12a-heptamethyl-1,3,4,5,6,6a,7,8,8a,10,11,12,13,14b-tetradecahydropicene-4a-carboxylic acid acetate], the inhibition at 10 µM in test [1] (setting [9]) is 2.02%; in test [2] (setting [10]), less than 0%. For the same compound, the results for the inhibition at 30 µM in test [1] (setting [9]) and in test [2] (setting [10]) were 43.9% and 9.28%, respectively. The inhibition at 60 µM in test [1] (setting [9]) amounted to 74.6%; in test [2] (setting [10]), 47.2%. Besides, the inhibition at 100 µM in test [1] (setting [9]) stood at 83%; in test [2] (setting [10]) it was 64.4%. In test [1], the “Effect on poly(I)-induced SEAP activity (in words)” value was “significantly inhibited”. The “Effect on poly(I:C)-induced SEAP activity (in words)” value in test [2] is listed as “significantly inhibited”. For the same compound, the figures for the IC50 in test [3] (Homo sapiens) and in test [3] were less than 1 µM and 0.9 µM, respectively. Further, the “Effect on STAT3 luciferase activity (in words)” value in test [3] is recorded as “inhibited STAT3 luciferase activity in a concentration dependent manner”. The “Inhibition (%) of STAT3 luciferase activity” value in test [3] (sample 1 μM) was 51.2%; in test [3] (sample 3 μM), 84.3%; in test [3] (sample 6 μM), 95.1%; in test [3] (sample 10 μM), 97.2%; in test [3] (sample 30 μM) it was 100%. Also, the “IL-6-induced STAT3 phosphorylation” value with STAT3 phosphorylation was “showed the inhibitory effects”. Also, the Osteoclast differentiation result in test [4] (10 μM) was “remarkable effect”. Also, the “Osteoclast differentiation (number and size of TRAP-positive osteoclasts)” value in test [4] is “remarkably inhibited”; in test [4] (listed as compound of Chemical Formula 1) it was “reduced in a concentration-dependent manner”.

On to `C[C@@H]1O[C@@H](OC[C@H]2O[C@@H](Oc3c(-c4ccc(O)c(O)c4)oc4cc(O)cc(O)c4c3=O)[C@H](O)[C@@H](O)[C@@H]2O)[C@H](O)[C@H](O)[C@H]1O` [Rutin, rutin, reference compound], for which the inhibition at 30 µM in test [1] (setting [5]) and in test [2] (setting [7]) was less than 0% throughout. Besides, the inhibition at 60 µM in test [1] (setting [6]) and in test [2] (setting [8]) was less than 0% in each case.

For `CC[C@H](/C=C/[C@@H](C)[C@H]1CC[C@H]2[C@@H]3CC=C4C[C@@H](O)CC[C@]4(C)[C@H]3CC[C@]12C)C(C)C` [Stigmasterol, (3S,8S,9S,10R,13R,14S,17R)-17-[(E,2R,5S)-5-ethyl-6-methylhept-3-en-2-yl]-10,13-dimethyl-2,3,4,7,8,9,11,12,14,15,16,17-dodecahydro-1H-cyclopenta[a]phenanthren-3-ol], in test [1] (setting [9]), the inhibition at 30 µM was less than 0%, the inhibition at 60 µM stood at 2.63% and the inhibition at 100 µM was found to be 1.42%. The “Effect on poly(I)-induced SEAP activity (in words)” value in test [1] is recorded as “did not show the inhibitory activity”. Besides, in test [2] (setting [10]), the inhibition at 30 µM was found to be 8.71%, the inhibition at 60 µM worked out at 4.92% and the inhibition at 100 µM was less than 0%. For the same compound, in test [2], the “Effect on poly(I:C)-induced SEAP activity (in words)” value is “did not show the inhibitory activity”. In addition, in test [3] (Homo sapiens), the IC50 was 90 µM. The “Effect on STAT3 luciferase activity (in words)” value in test [3] is listed as “inhibited STAT3 luciferase activity in a concentration dependent manner”. Besides, the “Inhibition (%) of STAT3 luciferase activity” value in test [3] (sample 60 μM) turned out to be 29.4%. Besides, the “Inhibition (%) of STAT3 luciferase activity” value in test [3] (sample 100 μM) stood at 58.4%.

Regarding `CC1(C)CC[C@]2(C(=O)O)CC[C@]3(C)C(=CC[C@@H]4[C@@]5(C)CC[C@H](O)C(C)(C)[C@@H]5CC[C@]43C)[C@@H]2C1` [oleanolic acid], in test [3] (sample 10 μM), the “Inhibition (%) of STAT3 luciferase activity” value was “approximately 14%”.

The values are drawn from patent US20140179780A1, “PHARMACEUTICAL COMPOSITION CONTAINING OLEANOLIC ACID ACETATE AS AN ACTIVE INGREDIENT FOR PREVENTING OR TREATING TLR- OR IL-6-MEDIATED DISEASES” (Korea Research Institute of Bioscience and Biotechnology, priority 2011, published 2014).
